Patent US11401278B2, “Macrocyclic indole derivatives” (The Broad Institute, Inc., priority 2017, dated 2022)
Where “and” joins values, the source holds several entries; their conditions need not be identical. Equal values may be shown once. Where a name gives a salt, the structure may show the parent alone. Read-outs that look alike come from different tables or passages of the source.

How the values were obtained:
HMC-1-8 = test: Antiproliferation assay (Assay 7), HMC-1-8; type: cell-based; conditions: CellTiter-Glo, several values per example, read-out: Antiproli HMC-1-8 [M] IC50
Outline: (§1)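 Proliferation was read by CellTiter-Glo luminescence after 72 hours of compound treatment at 37° C. The read was referenced to a parallel plate measured at time zero.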

MV-4-11 = test: Antiproliferation assay (Assay 7), MV-4-11; type: cell-based; conditions: CellTiter-Glo, several values per example
Outline: as §1

BCL-XL = BCL-XL (Homo sapiens (Human), UniProt Q07817); test: Protein-protein interaction assay BCL-XL/Bad BH3 peptide (BCL-XL assay, TR-FRET); type: binding; conditions: His-BCL-XL / Bad BH3 peptide, median
Description: Assay 2 Protein-Protein Interaction Assay: BCL-XL/Bad BH3 Peptide (BCL-XL Assay)
The dose-dependent inhibition by the compounds described in this invention of the interaction between BCL-XL and the BH3 domain of Bad (both human) was determined using a steady state binding competition assay with time-resolved fluorescence energy transfer (TR-FRET) readout. For that purpose BCL-XL (amino acids 1-212, C-terminal fused to a hexahistidine (6×His) tag (SEQ ID 3) and a synthetic Bad BH3-derived peptide of sequence Biotin-PEG2-PEG2-NLWAAQRYGRELRR-Nle-SDEFVDSFKK-amide (SEQ ID 4) served as protein receptor and tracer ligand respectively. The recombinant BCL-XL protein (expressed in E. coli) was purchased from BPS Bioscience (San Diego, Calif., USA). The Bad BH3-derived peptide can be obtained from e.g. Biosyntan (Berlin, Germany).
In the assay 11 different concentrations of each compound (0.1 nM, 0.33 nM, 1.1 nM, 3.8 nM, 13 nM, 44 nM, 0.15 μM, 0.51 μM, 1.7 μM, 5.9 μM and 20 μM) were typically measured as duplicates in the same microtiter plate. For that, 100-fold concentrated DMSO solutions were prepared by serial dilutions (1:3.4) of a 2 mM stock solution in a clear, 384-well microtiter plate (Greiner Bio-One, Frickenhausen, Germany). From there, 50 nl were transferred in a dark test plate (Greiner Bio-One, Frickenhausen, Germany). The assay was initiated by addition of 2 μl of a 2.5-fold concentrated His-BCL-XL solution (usually for a 1 nM end concentration in 5 μl reaction volume) in aqueous assay buffer [50 mM Tris/HCl pH 7, 100 mM sodium chloride (NaCl), 50 mM potassium fluoride (KF), 0.005% Tween-20, 2 mM DTT, 0.1% bovine gamma globulin (BGG)] to the compounds in the assay plate. This was followed by a 10-minute incubation step at 22° C. for pre-equilibration of the putative complex between His-BCL-XL and the compounds. After that, 3 μl of a 1.67-fold concentrated solution (in assay buffer) consisting of Bad BH3-derived peptide (1 nM end concentration) and TR-FRET detection reagents [1.67 nM anti-His-Eu cryptate and 1.67 nM streptavidin-XL665 (both from Cisbio Bioassays, Codolet, France)], were added.
The mixture was incubated in the dark for one hour at 22° C. and then overnight at 4° C. The formation of BCL-XL/Bad complexes was determined by measuring the resonance energy transfer of the anti-His- Eu-cryptate antibody to the streptavidin-XL665 present in the reaction. For that purpose, the fluorescence emission at 620 nm and 665 nm after excitation at 330-350 nm was measured in a TR-FRET measuring instrument, for instance a Rubystar or a Pherastar (both from BMG Lab Technologies, Offenburg, Germany) or a Viewlux (Perkin-Elmer). The ratio of the emission at 665 nm and at 622 nm was used as indicator of the amount of BCL-XL/Bad complexes present.
The resulting data (ratio) were normalized, taking 0% inhibition as the mean value of control measurements (usually 32 data points) where all reagents were included. In this case 50 nl DMSO were used instead of compounds. A 100% inhibition corresponded to the mean value of control measurements (usually 32 data points) where all reagents except BCL-XL were included. IC50 values were determined by regression analysis based on a 4 parameter equation (minimum, maximum, IC50, Hill; Y=Max+(Min−Max)/(1+(X/IC50)^HiII) using the Screener Software (Genedata).

[1] = Homo sapiens, MV4-11, 72 h, read-out: Antiproli MV-4-11 [M] IC50
[2] = 72 hours, read-out: Antiproli MV-4-11 [M] IC50

Sequence of BCL-XL (Q07817 other isoform, or with tags, fused parts or gaps): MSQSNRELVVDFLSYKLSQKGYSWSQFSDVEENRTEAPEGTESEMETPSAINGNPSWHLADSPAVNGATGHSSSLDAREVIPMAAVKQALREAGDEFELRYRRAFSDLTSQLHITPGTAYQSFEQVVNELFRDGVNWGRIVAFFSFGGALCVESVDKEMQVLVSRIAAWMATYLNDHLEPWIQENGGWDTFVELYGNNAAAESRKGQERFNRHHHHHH

Row | IC50 (MV-4-11; [1]) | IC50 (BCL-XL) | SMILES | further results
1 | – | – | CCc1c2c(nn1C)CN(CC)S(=O)(=O)CCCn1c(C(=O)O)c(CCCOc3cccc4cc(F)ccc34)c3ccc(Cl)c-2c31 (racemic) [Example 56, (rac)-4-chloro-3,14-diethyl-7-{3-[(6-fluoro-1-naphthyl)oxy]propyl}-2-methyl-11,12,14,15-tetrahydro-2H,10H-pyrazolo[3′,4′:4,5][1,2,8]thiadiazacycloundecino[6,7,8-hi]indole-8-carboxylic acid 13,13-dioxide] | IC50 (HMC-1-8; 72 h): 1.5e-06 M; IC50 (HMC-1-8; 72 hours): 2.3e-06 M and 2.7e-06 M
2 | – | – | CCNCC.CCc1c2c(nn1C)C(CCN1CCOCC1)N(C)S(=O)(=O)CCCn1c(C(=O)O)c(CCCOc3cccc4cc(F)ccc34)c3ccc(Cl)c-2c31 (single isomer, unassigned; enantiomer 2) [Example 76, 4-chloro-3-ethyl-7-{3-[(6-fluoronaphthalen-1-yl)oxy]propyl}-2,14-dimethyl-15-[2-(morpholin-4-yl)ethyl]-13,13-dioxo-10,11,12,13,14,15-hexahydro-2H-13lambda^6-pyrazolo[3′,4′:4,5][1,2,8]thiadiazacycloundecino[6,7,8-hi]indole-8-carboxylic acid-N-ethylethanamine Salt (Enantiomer 2)] | IC50 (HMC-1-8; 72 hours): 3.5e-07 M and 4.1e-07 M
3 | 1.62e-05 M | > 20 µM | CCc1c2c(nn1C)CN(CCCN1CCCC1=O)S(=O)(=O)CCCn1c(C(=O)O)c(CCCOc3cccc4ccccc34)c3cccc-2c31 (racemic) [Example 13, (rac)-12-Ethyl-11-methyl-1-(3-(naphthalen-1-yloxy)propyl)-8-(3-(2-oxopyrrolidin-1-yl)propyl)-5,6,9,11-tetrahydro-4H,8H-pyrazolo[3′,4′:4,5][1]thia[2,8]diazacycloundecino[6,7,8-hi]indole-2-carboxylic acid 7,7-dioxide] | –
4 | – | 18 µM | Cc1c2c(nn1C)CN(C)S(=O)(=O)CCCn1c(C(=O)O)c(CCCOc3cccc4ccccc34)c3ccc(Cl)c-2c31 (single isomer, unassigned; enantiomer 2) [Example 6, 4-Chloro-2,3,14-trimethyl-7-{3-[(naphthalen-1-yl)oxy]propyl}-13,13-dioxo-10,11,12,13,14,15-hexahydro-2H-13λ^6-pyrazolo[3′,4′:4,5][1,2,8]thiadiazacycloundecino[6,7,8-hi]indole-8-carboxylic acid-N-ethylethanamine salt (Enantiomer 2)] | IC50 (MV-4-11; 72 hours, listed as 06, read-out: Antiproli MV-4-11 [M] IC50): 2.02e-05 M
5 | 4.7e-06 M | > 20 µM | CCc1c2c(nn1C)CN(C)S(=O)(=O)CCCn1c(C(=O)O)c(CCCOc3cccc4ccccc34)c3ccc(F)c-2c31 (racemic) [Example 31, (rac)-12-Ethyl-13-fluoro-8,11-dimethyl-1-(3-(naphthalen-1-yloxy)propyl)-5,6,9,11-tetrahydro-4H,8H-pyrazolo[3′,4′:4,5][1]thia[2,8]diazacycloundecino[6,7,8-hi]indole-2-carboxylic acid 7,7-dioxide] | IC50 (MV-4-11; [2]): 5.51e-06 M
6 | 2.41e-06 M | > 20 µM | CCc1c2c(nn1C)CN(C)S(=O)(=O)CCCn1c(C(=O)O)c(CCCOc3cc(C)c(Cl)c(C)c3)c3ccc(Cl)c-2c31 [Example 22, (rac)-13-Chloro-1-(3-(4-chloro-3,5-dimethylphenoxy)propyl)-12-ethyl-8,11-dimethyl-4,5,6,8,9,11-hexahydropyrazolo[3′,4′:4,5][1,2,8]thiadiazacycloundecino[6,7,8-hi]indole-2-carboxylic acid 7,7-dioxide] | –
7 | 1.35e-06 M | > 20 µM | CCc1c2c(nn1C)CN(C)S(=O)(=O)CCCn1c(C(=O)O)c(CCCOc3cccc4cc(F)ccc34)c3ccc(F)c-2c31 (racemic) [Example 7, (rac)-12-Ethyl-13-fluoro-1-(3-((6-fluoronaphthalen-1-yl)oxy)propyl)-8,11-dimethyl-5,6,9,11-tetrahydro-4H,8H-pyrazolo[3′,4′:4,5][1]thia[2,8]diazacycloundecino[6,7,8-hi]indole-2-carboxylic acid 7,7-dioxide] | IC50 (MV-4-11; 72 hours, listed as 07, read-out: Antiproli MV-4-11 [M] IC50): 2.15e-06 M
8 | 7.54e-06 M | > 20 µM | Cc1cc(OCCCc2c(C(=O)O)n3c4c(c(F)ccc24)-c2c(nn(C)c2C)CN(C)S(=O)(=O)CCC3)cc(C)c1Cl (racemic) [Example 28, (rac)-1-(3-(4-Chloro-3,5-dimethylphenoxy)propyl)-13-fluoro-8,11,12-trimethyl-5,6,9,11-tetrahydro-4H,8H-pyrazolo[3′,4′:4,5][1]thia[2,8]diazacycloundecino[6,7,8-hi]indole-2-carboxylic acid 7,7-dioxide] | –
9 | 8.61e-07 M | > 20 µM | Cc1c2c(nn1C)CN(C)S(=O)(=O)CCCn1c(C(=O)O)c(CCCOc3cccc4c3CCC4)c3ccc(F)c-2c31 (racemic) [Example 27, (rac)-1-(3-((2,3-Dihydro-1H-inden-4-yl)oxy)propyl)-13-fluoro-8,11,12-trimethyl-5,6,9,11-tetrahydro-4H,8H-pyrazolo[3′,4′:4,5][1]thia[2,8]diazacycloundecino[6,7,8-hi]indole-2-carboxylic acid 7,7-dioxide] | –
10 | 1.73e-06 M | > 20 µM | Cc1c2c(nn1C)CN(C)S(=O)(=O)CCCn1c(C(=O)O)c(CCCOc3cccc4cc(F)ccc34)c3ccc(F)c-2c31 (racemic) [Example 25, (rac)-13-Fluoro-1-(3-((6-fluoronaphthalen-1-yl)oxy)propyl)-8,11,12-trimethyl-5,6,9,11-tetrahydro-4H,8H-pyrazolo[3′,4′:4,5][1]thia[2,8]diazacycloundecino[6,7,8-hi]indole-2-carboxylic acid 7,7-dioxide] | –
11 | 1.18e-05 M | > 20 µM | CCc1c2c(nn1C)CN(CCN1CCCCC1)S(=O)(=O)CCCn1c(C(=O)O)c(CCCOc3cccc4ccccc34)c3cccc-2c31 (racemic) [Example 14, (rac)-12-Ethyl-11-methyl-1-(3-(naphthalen-1-yloxy)propyl)-8-(2-(piperidin-1-yl)ethyl)-4,5,6,8,9,11-hexahydropyrazolo[3′,4′:4,5][1,2,8]thiadiazacycloundecino[6,7,8-hi]indole-2-carboxylic acid 7,7-dioxide 2,2,2-trifluoroacetic acid salt] | IC50 (MV-4-11; [2]): 1.28e-05 M
12 | 1.31e-06 M | > 20 µM | CCc1c2c(nn1C)CN(C)S(=O)(=O)CCCn1c(C(=O)O)c(CCCOc3cccc4ccccc34)c3ccc(Cl)c-2c31 [Example 20, (rac)-13-Chloro-12-ethyl-8,11-dimethyl-1-(3-(naphthalen-1-yloxy)propyl)-5,6,9,11-tetrahydro-4H,8H-pyrazolo[3′,4′:4,5][1]thia[2,8]diazacycloundecino[6,7,8-hi]indole-2-carboxylic acid 7,7-dioxide] | –
13 | 1.65e-05 M | > 20 µM | CCc1c2c(nn1C)CNS(=O)(=O)CCCn1c(C(=O)O)c(CCCOc3cccc4ccccc34)c3cccc-2c31 (racemic) [Example 17, (rac)-12-Ethyl-11-methyl-1-(3-(naphthalen-1-yloxy)propyl)-4,5,6,8,9,11-hexahydropyrazolo[3′,4′:4,5][1,2,8]thiadiazacycloundecino[6,7,8-hi]indole-2-carboxylic acid 7,7-dioxide] | –
